Key:
[1] = test system: human cells; assay: Human cells fed with free Neu5Gc, incorporation into endogenous glycoproteins; type: cell-based
Description: It is therefore reasoned that the Neu5Gc in normal humans originates from exogenous sources. […] Likewise, human cells cultured in FCS incorporated Neu5Gc from the serum glycoproteins into the native glycoconjugates of the cells (Muchmore, E. A., Diaz, S, and Varki, A. (1998). Am J Phys Anthropol 107:187-198; and Tangvoranuntakul, et al., supra.

[2] = Human Neu5Gc ingestion study; type: in vivo
Protocol: Human Neu5Gc Ingestion Study—Human subjects were enlisted in the study, and were told to avoid animal foods for 2 days, all medications for 1 day, use a lanolin-free (Neu5Gc-free) shampoo for 2 days, and ingest only fruit juice on the morning of study. Subjects then drank 150 mg of porcine submaxillary mucin Sias (see above) dissolved in 100 ml water. For the next 6 h they drank a 1:1 mixture of fruit juice and soymilk (Sia free) at ˜2 ml/Kg/hr. Serum, urine and saliva samples were obtained at multiple time points. Human saliva was collected by chewing parafilm, after washing the mouth out well with water. Urine volume and pH were recorded prior to centrifugation at 1000 g for 10 min, and collection of the supernatant. All samples were stored frozen at −20° C. Head hairs (˜20) and/or facial hair trimmings (from men) were collected prior to, and on several days after Neu5Gc ingestion.
Purification and analysis of Sialic Acids and N-acylmannosamines from Human Samples—Human salivary mucin was precipitated by adjusting to pH 3 with 100 mM acetic acid, stirring at 4° C. overnight, collected at 14,000 g for 10 min, and washed twice with 1 ml of ice-cold PBS. Human hair clippings were washed in 100 mM ice-cold acetic acid for two h and crushed in a clean ceramic mortar. Bound Sias from saliva, hair or serum were released with mild acid as above, filtered through Microcon 10 filters (Millipore, Bedford, Mass.), dried down, reconstituted in water and analyzed for Sia content by DMB-HPLC.
Five ml urine aliquots were diluted 5-fold and loaded onto 10 ml columns of AG50W-X2 resin (H^+ form, BioRad, Richmond, Calif.) equilibrated in water. The run-through and washes (2×10 ml of water) were pooled and loaded onto 10 ml columns of AG1X8 resin (Formate form, BioRad) equilibrated in water. The combined run-through and washes (2×10 ml of water) were lyophilized. After washing with 5 volumes of 10 mM formic acid, free Sias were eluted with 5 volumes of 1M formic acid, diluted two-fold with water, and lyophilized.
Free Sias were purified from urine samples, and analyzed for Neu5Gc content by DMB-HPLC. Since overlapping fluorescent peaks prevented definitive identification and quantification, HPLC fractions eluting at the time expected for DMB-Neu5Gc were collected and subjected to MS, confirming an increase in ion peaks at m/z 424 and m/z 442. The sum of ion intensities of m/z 424 and m/z 442 at each time point provided an estimate of Neu5Gc quantity. Ingested Neu5Gc was rapidly absorbed and excreted into the urine (FIG. 3A). About 3-6% of the ingested dose was excreted within 4-6 h, with the peak excretion rate at 2-3 h and a return to baseline levels within 24 h.

[3] = test system: anti-Neu5Gc antibodies in human sera; assay: Inhibition of human serum anti-Neu5Gc antibody ELISA reactivity to Neu5Gc-PAA; type: binding; settings: free sugar at 2 mM
Protocol: Detection of Anti-Neu5Gc and anti-α-Gal specific antibodies in human sera—Microtiter (Costar, Corning, N.Y.) plate wells were coated with Neu5Ac-polyacrylamide(PAA), Neu5Gc-PAA, or Galα1-3GalBeta1-4GlcNAc-PAA (Glycotech, Rockville, Md.) at a concentration of 500 ng/well, in 50 mM sodium carbonate-bicarbonate buffer pH 9.5, at 4° C. overnight. After washing with TBS, pH 7.5 and blocking with TBST for 2 h at RT, triplicate wells were incubated with 1:50 dilutions of serum in TBST at RT for 4 h. Wells were washed 5 times with TBS, and incubated with HRP-conjugated mouse anti-human IgA (Calbiochem, San Diego, Calif.), anti-human IgG (Jackson ImmunoResearch, West Grove, Pa.) or anti-human IgM (KPL, Gaithersburg, Md.) each diluted in TBST at 1:20,000, at RT for 1.5 hour. The IgG anti-Neu5Gc and anti-α-Gal antibodies were quantitated using a standard curve of normal human IgG coated to the wells under the same general conditions.
Anti-Neu5Gc antibodies of the IgA, IgM and IgG classes were detected in the sera of all three subjects who ingested Neu5Gc at baseline, but no increases occurred after Neu5Gc ingestion (not shown). […] Specificity was confirmed by showing that anti-Neu5Gc reactivity was blocked by chimpanzee serum in a concentration-dependent manner, but not by equivalent amounts of a Neu5Gc antibody-negative human serum (FIG. 4B). […]

[4] = test system: Caco-2 cells; assay: Feeding of human epithelial cells with Neu5Gc; type: cell-based; settings: Caco-2, 3 mM Neu5Gc for 3 days, HPLC
Protocol: Feeding of Human Epithelial Cells with Neu5Gc—Caco-2 cells (human epithelial cells isolated from a primary colon carcinoma, ATCC, Manassas, Va.), were propagated in α-MEM (Gibco, Invitrogen Corporation, San Diego, Calif.) supplemented with 20% heat inactivated Fetal Calf Serum, at 37° C., 5% CO2. Prior to feeding, the cells were split and cultured for 4 days in α-MEM supplemented with 20% heat inactivated premium human serum type AB (Irvine scientific, Santa Ana, Calif.). Cells were then cultured in the presence of various concentrations of free Neu5Gc (0, 0.3, 1 and 3 mM, respectively) for 3 days at 37° C. Cells were then washed with cold PBS, scraped into 20 mM sodium phosphate pH 7.5 and sonicated. The protein extract was quantified and analysed by Western blot using the anti-Neu5Gc antibody.
Although human cells cultured in fetal calf serum express cell surface Neu5Gc in small amounts (Muchmore, et al., supra, and Oetke, et al., supra), this could represent either metabolic incorporation or non-specific absorption. Human epithelial cells were cultured in human serum until no traces of Neu5Gc derived from fetal calf serum could be detected by HPLC (typically ˜4 days). Culture was then continued for 3 days in the absence or presence of varying amounts of free Neu5Gc. […]

Row | level of Neu5Gc incorporated into endogenous glycoproteins [1] | subjects with increase of Neu5Gc in salivary mucins ([2]; 2 days after ingestion, MS) | time of decline of salivary mucin Neu5Gc to baseline levels ([2]; after ingestion) | Neu5Gc in serum samples ([2]; any time points after ingestion) | time of peak urinary excretion rate ([2]; oral 150 mg) | time of return of urinary excretion to baseline levels ([2]; oral 150 mg) | reactions to Neu5Gc ingestion ([2]; oral 150 mg, human subjects) | share of the ingested dose excreted into the urine ([2]; within 4-6 h after oral 150 mg porcine submaxillary mucin Sias, MS estimate) | highest level of incorporation of Neu5Gc into the cells, of total Sia [4] | SMILES | inhibition of anti-Neu5Gc reactivity of human sera [3]
1 | > 50% | 2 of 3 | ≤ 4 days | not detected | 2 to 3 h | ≤ 24 h | no immediate reactions | 3-6% | 85% | O=C(CO)N[C@H]1[C@H]([C@H](O)[C@H](O)CO)OC(O)(C(=O)O)C[C@@H]1O (some centres unmarked) [Neu5Gc, N-glycolylneuraminic acid] | > 70%
2 |  |  |  |  |  |  |  |  |  | CC(=O)N[C@H]1[C@H]([C@H](O)[C@H](O)CO)OC(O)(C(=O)O)C[C@@H]1O (some centres unmarked) [Neu5Ac, N-acetylneuraminic acid, reference compound] | not

From patent US8084219B2, “Methods for detecting and analyzing N-glycolylneuraminic acid (Neu5Gc) in biological materials” (The Regents of the University of California, priority 2003, dated 2011)
